# Patent publication US20100221719A1, “Probes for detecting protein nuclear transport and method for detecting and quantifying protein nuclear transport using the same” (priority 2004, published 2010)
# Key:
# [1] = tested on: Sterol Regulatory Element-Binding Proten-2 (SREBP-2); experiment: Confirmation of SREBP-2 localization in COS-7 cells transfected with pcDRc-SREBP; type: cell-based; details: in the presence of cholesterol, FIG. 18
# Text: Plasmid pcDRc-AR in Examples 1 to 6 was cleaved with restriction endonucleases NotI and XhoI to remove the cDNA encoding AR, and a cDNA encoding SREBP-2 was inserted at NotI and XhoI sites thereby constructing pcDRc-SREBP (FIG. 17).
# [2] = tested on: Sterol Regulatory Element-Binding Proten-2 (SREBP-2); experiment: Quantification of SREBP-2 translocation into the nucleus (reconstituted RLuc luminescence, COS-7 cells); type: cell-based; details: different concentrations of cholesterol, FIG. 19
# Procedure: Translocation of SERPB-2 into the nucleus was qualified in the same manner as in Example 7. COS-7 cells were cotransfected with pcRDn-NLS and pcDRc-SREBP, and different concentrations of cholesterol were added to each microtiter well. The cells were harvested, and their lysates were mixed with a coelenterazine solution.
# [3] = target: T1, glucocorticoid receptor (GR) (Homo sapiens, UniProt P04150); experiment: Quantification of GR translocation into the nucleus (reconstituted RLuc luminescence, NIH3T3 cells); type: cell-based
# T1 construct: DnaE-C (C-terminal splicing domain of DnaE intein) (N); expressed in transfected cells; host or cells: NIH3T3
# T1 sequence (P04150 1-777): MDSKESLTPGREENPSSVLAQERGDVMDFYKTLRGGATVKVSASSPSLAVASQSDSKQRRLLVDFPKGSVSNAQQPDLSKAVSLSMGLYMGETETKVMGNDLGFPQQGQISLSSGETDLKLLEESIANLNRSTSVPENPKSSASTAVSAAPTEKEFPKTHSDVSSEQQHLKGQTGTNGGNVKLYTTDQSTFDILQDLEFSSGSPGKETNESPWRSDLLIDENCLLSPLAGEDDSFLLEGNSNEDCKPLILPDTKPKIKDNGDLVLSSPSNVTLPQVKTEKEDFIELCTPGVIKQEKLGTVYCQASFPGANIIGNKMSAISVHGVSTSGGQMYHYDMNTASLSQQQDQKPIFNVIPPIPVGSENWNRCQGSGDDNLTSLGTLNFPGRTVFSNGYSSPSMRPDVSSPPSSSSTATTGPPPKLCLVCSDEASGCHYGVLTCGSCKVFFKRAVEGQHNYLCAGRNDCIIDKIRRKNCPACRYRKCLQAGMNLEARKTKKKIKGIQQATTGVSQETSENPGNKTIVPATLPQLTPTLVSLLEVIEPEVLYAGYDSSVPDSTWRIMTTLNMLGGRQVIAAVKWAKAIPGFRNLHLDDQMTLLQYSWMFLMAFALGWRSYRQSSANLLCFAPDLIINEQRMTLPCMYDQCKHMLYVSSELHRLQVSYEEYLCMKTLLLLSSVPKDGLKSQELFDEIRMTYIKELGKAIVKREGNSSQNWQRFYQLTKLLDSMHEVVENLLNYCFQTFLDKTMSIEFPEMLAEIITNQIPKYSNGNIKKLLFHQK
# Procedure: NIH3T3 cells were cotransfected with pcRDn-NLS and pcDRc-GR, and different concentrations of corticosterone were added to each microtiter well. The cells were harvested, and their lysates were mixed with a coelenterazine solution.
# [4] = target: T1, glucocorticoid receptor (GR); experiment: Confirmation of GR localization in NIH3T3 cells transfected with pcDRc-GR; type: cell-based; details: addition of corticosterone, FIG. 14
# Procedure: Plasmid pcDRc-AR in Examples 1 to 6 was cleaved with restriction endonucleases NotI and XhoI to remove the cDNA encoding AR, and a cDNA encoding glucocorticoid receptor (GR) was inserted at NotI and XhoI sites (FIG. 13). The same experiment as in case of AR was performed using the thus-constructed plasmid.
# [5] = target: T2, androgen receptor (AR) (Homo sapiens, UniProt P10275); experiment: Cell-based in vitro assay of AR translocation into the nucleus (reconstituted RLuc luminescence, COS-7 cells)
# T2 construct: DnaE-C (C-terminal splicing domain of DnaE intein) (N); expressed in transfected cells; host or cells: COS-7
# T2 sequence (P10275 1-920): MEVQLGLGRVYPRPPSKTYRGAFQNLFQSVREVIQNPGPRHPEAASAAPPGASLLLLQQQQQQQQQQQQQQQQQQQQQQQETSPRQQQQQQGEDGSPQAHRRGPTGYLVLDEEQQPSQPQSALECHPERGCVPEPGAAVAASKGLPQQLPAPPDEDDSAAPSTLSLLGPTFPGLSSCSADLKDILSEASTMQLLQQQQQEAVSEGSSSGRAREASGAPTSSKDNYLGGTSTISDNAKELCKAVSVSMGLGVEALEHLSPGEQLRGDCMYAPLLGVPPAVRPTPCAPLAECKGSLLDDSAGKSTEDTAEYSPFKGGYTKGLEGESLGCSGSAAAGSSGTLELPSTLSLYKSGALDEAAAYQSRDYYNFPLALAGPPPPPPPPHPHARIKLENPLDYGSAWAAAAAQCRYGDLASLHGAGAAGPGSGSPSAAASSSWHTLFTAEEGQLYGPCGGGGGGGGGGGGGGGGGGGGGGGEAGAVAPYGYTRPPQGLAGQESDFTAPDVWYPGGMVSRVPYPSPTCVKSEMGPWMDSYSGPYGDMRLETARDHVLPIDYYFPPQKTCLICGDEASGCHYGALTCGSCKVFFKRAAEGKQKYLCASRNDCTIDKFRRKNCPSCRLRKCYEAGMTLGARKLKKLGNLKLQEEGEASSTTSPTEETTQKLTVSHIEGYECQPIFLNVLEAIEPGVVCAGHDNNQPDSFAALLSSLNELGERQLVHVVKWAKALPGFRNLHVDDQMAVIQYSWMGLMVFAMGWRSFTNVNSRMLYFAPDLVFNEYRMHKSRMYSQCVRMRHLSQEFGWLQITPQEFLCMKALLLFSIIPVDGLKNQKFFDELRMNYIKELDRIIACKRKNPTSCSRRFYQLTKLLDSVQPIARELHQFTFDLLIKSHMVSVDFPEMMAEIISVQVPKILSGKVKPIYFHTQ
# Procedure: COS-7 cells were cotransfected with the plasmids and incubated for 12 h. The medium was replaced with DMEM supplemented with 10% FBS, and 24 h after the replacement, steroid hormones or synthetic chemicals were added to each well.
# After the COS-7 cells were extensively incubated for 2 hours, the cells were harvested, and luciferase activity was evaluated by using the Renilla luciferase assay kit (Promega) with a luminometer (Minilumat LB9506; Berthold, GmbH) with an integration time of 20 sec.
# The cells were harvested, and their lysates were mixed with a coelenterazine solution.
# [6] = target: T2, androgen receptor (AR); experiment: In vivo imaging of AR nuclear import in mouse brain with implanted cotransfected COS-7 cells; details: inhibitor 10 mg/kg i.p. plus DHT, average from three mice
# Procedure: Two hours after injection, 10 μl of coelenterazine (0.14 mg/kg of body weight) was injected intracerebrally in the mice, and representatives from each mouse group (n=3) were imaged in 2-min intervals.
# [7] = tested on: Signal Transducer and Activator of Transcription 3 (STAT-3); experiment: Quantification of STAT-3 translocation into the nucleus (reconstituted RLuc luminescence, HEK293 cells); type: cell-based; details: different concentrations of OSM
# Procedure: HEK293 cells were cotransfected with pcRDn-NLS and pcDRc-STAT3, and different concentrations of OSM were added to each microtiter well. The cells were harvested, and their lysates were mixed with a coelenterazine solution.
# [8] = tested on: Signal Transducer and Activator of Transcription 3 (STAT-3); experiment: Confirmation of STAT-3 localization in HEK293 cells transfected with pcDRc-STAT3; type: cell-based; details: addition of OSM, FIG. 21
# Text: Plasmid pcDRc-AR in Examples 1 to 6 was cleaved with restriction endonucleases NotI and XhoI to remove the cDNA encoding AR, and a cDNA encoding STAT-3 was inserted at NotI and XhoI sites thereby constructing pcDRc-STAT-3 (FIG. 20).
molecule,measurement,setting,value
CC(C)CCC[C@@H](C)[C@H]1CC[C@H]2[C@@H]3CC=C4C[C@@H](O)CC[C@]4(C)[C@H]3CC[C@]12C [cholesterol],localization of the probe with SREBP-2,[1],predominantly in cytoplasmic
same,luminescence signals of reconstituted RLuc (dose-response),[2],increased with decreasing the concentration of cholesterol
C[C@]12C[C@H](O)[C@H]3[C@@H](CCC4=CC(=O)CC[C@@]43C)[C@@H]1CC[C@@H]2C(=O)CO [corticosterone],luminescence signals of reconstituted RLuc (dose-response),[3]; different concentrations of corticosterone,increased with increasing the concentration of corticosterone
same,localization of Probe I (GR),[4],nuclear localization of Probe I
C[C@]12CCC(=O)C=C1CC[C@@H]1[C@@H]2[C@@H](O)C[C@@]2(C)[C@H]1CC[C@]2(O)C(=O)CO [cortisol],induction of GR translocation into the nucleus,[3]; FIG. 15,induce the GR translocation into the nucleus
CC12CC1(C)C(=O)N(c1cc(Cl)cc(Cl)c1)C2=O (stereo not shown) [procymidone],inhibition of DHT-induced luminescence / nuclear translocation of AR,"[5]; in the presence of DHT, FIG. 5c",inhibit the DHT-induced strong luminescence
same,"increase in observed luminescence intensity (AR translocation, compound alone)","[5]; over the concentration range tested, FIG. 5b",did not induce any increase
same,luminescence intensity on stimulation with DHT together with inhibitor,[6],decrease in luminescence intensity
"oncostatin M (protein, UniProt P13725 26-221, looked up, oncostatin M (OSM), a ligand) Oncostatin-M: AAIGSCSKEYRVLLGQLQKQTDLMQDTSRLLDPYIRIQGLDVPKLREHCRERPGAFPSEETLRGLGRRGFLQTLNATLGCVLHRLADLEQRLPKAQDLERSGLNIEDLEKLQMARPNILGLRNNIYCMAQLLDNSDTAEPTKAGRGASQPPTPTPASDAFQRKLEGCRFLHGYHRFMHSVGRVFSKWGESPNRSRR",luminescence signals of reconstituted RLuc (dose-response),[7],increased with decreasing the concentration of cOSM
same,localization of the probe with STAT3,[8],nuclear localization of the probe
